Two substances from patent publication US5070074A, “Hypoglycemic and growth-promoting polypeptides isolated from bacitracin” (Protor Co., priority 1990, dated 1991) can be followed below.

This experiment has as its system insulinase. Put plainly: insulinase inhibitory activity (method of Duckworth et al.). It counts as biochemical. The following applies: peaks from CM-Sepharose fractionation of commercial bacitracin. As for the experimental part: The desired fraction is believed to have a molecular weight of about 1400, approximately the same as bacitracin A or F. Their anti-insulinase and antibacterial activities can be assayed in conventional manner. For example, the insulinase inhibitory activity was measured according to the method of Duckworth, et al., Proc. Nat. Acad. Sci., 69, 3698-3702 (1972) and the anti-bacterial activity by the method of Patrick, et al., Antibiotics and Chemotherapy, 1, 133-137 (1951).
A 350 ml bed volume of CM-Sepharose in a packed column (2.8×56 cm) was equilibrated with 0.05M ammonium acetate, pH 4.5 One gram of commercial bacitracin dissolved in 50 ml of buffer was applied to the packed column. The material was eluted with […] of equilibrating buffer followed by 350 ml of 1M ammonium acetate pH 4.5 buffer. Five ml fractions were collected and absorbance measurements at 252, 280 and 290 nm were made. In addition, insulinase inhibitory activity measurements were made on each peak. […] The peaks were collected, lyophilized, weighed and dissolved in water at 5 mg/ml concentration for specific activity measurements. The material collected with the second buffer contained 5-10 % of the total weight of the applied material and 90 % of the total insulinase inhibitory capacity. The specific activity of this material was 10-12 times that of the starting commercial material.

Turning to bacitracin F, the insulinase inhibitory activity entry was “negligible”. Further, the insulinase inhibitory activity result (listed as bacitracin F) was “substantially no”.

For bacitracin A, the insulinase inhibitory activity result is reported as “negligible”. In addition, the insulinase inhibitory activity entry (listed as bacitracin A) is “substantially no”.
